Read-outs that look alike come from different tables or passages of the source.
What was measured:
[1] = test system: aspirin-induced gastric bleeding; assay: Prevention of aspirin-induced gastric bleeding in pyloric-ligated rats, i.p. test compound (Examples 1-22); type: in vivo, Female Sprague-Dawley rats; settings: rat; for change in vivo at 50 mg/kg: 50 mg/kg i.p.
Description: The prevention of aspirin-induced bleeding in rats was determined by the following procedure. Female Sprague-Dawley rats weighing 150-180 g. were fasted for 24 hours on wire and divided into groups of six animals each. The rats were anesthetized and a ligature placed at the pyloric-duodenal junction. Groups serving as controls received normal saline (4.0 ml/kg, i.p.). […] Some of the compounds were tested at 50 mg/kg, i.p. The rats were sacrificed 60 min. after aspirin administration by cervical dislocation. The volume of the gastric contents was determined and compared against that produced with the same amount of aspirin for change in volume. […] (Gradation between 0 to 40 is on an even scale).

[2] = test system: aspirin-induced gastric bleeding; type: in vivo, cats; settings: cat
Description: Fasted cats weighing […] were anesthetized with phenobarbital sodium (130 mg/kg, i.p.). Glyceryl guaiacolate was administered intravenously for a total of 2 hrs. beginning 60 min. prior to the topical application of the aspirin (10 mg) to the gastric mucosa. Throughout the experiment, artificial gastric juice (USP, pH 1.3) bathed the mucosa by means of the specially designed chamber. The number of bleeding sites occurring at various exposure sites were recorded at 15, 30 and 60 min. Glyceryl guaiacolate was given at doses of 10 and 30 mg/kg/hr via a previously cannulated jugular vein using an infusion pump (Harvard Apparatus Co., Model 1202). […] An important point is that with 30 mg/kg/hr, i.v., of glyercyl guaiacolate there was no bleeding at 30 min. compared with an average of 14 bleeding sites when no glyceryl guaiacolate was adminsitered. A total of 23 cats were used and there was a minimum of 24 aspirin exposure sites for each dose of glyceryl guaiacolate.

[3] = test system: aspirin-induced bleeding; settings: rat; for Gastric Bleeding Index / Percent Decrease In Mucosal Hemorrhage vs. Control / Total Hemoglobin Loss / Volume Gastric Secretion: aspirin ca 375 p.o.
Description: The effect of glyceryl guaiacolate (Compound 8) on aspirin-induced bleeding in rats was studied using the following procedure. Female Sprague-Dawley rats, weighing 140-160 g. and fasted for 24 hrs. on wire were divided into groups of 10 animals each. All animals were anesthetized with Metofane® and a ligature placed at the pyloric-duodenal junction. Groups serving as controls received normal saline (4.0 ml/kg, i.p.). Some groups received normal saline and in addition were given aspirin (375 mg/kg, p.o.) in artificial gastric juice; the remaining groups received aspirin in the same amount and also glyceryl guaiacolate 30 min. prior to the aspirin. The aspirin was administered in artificial gastric juice (USP, […]) in a total volume of 2 ml. to each rat. Following a recovery period of 1 hr. the animals received saline, aspirin and glyceryl guaiacolate in the amounts and by the routes indicated. In most of the experiments, 90 min. following aspirin the rats were sacrificed by cervical dislocation. The stomachs were removed and gastric contents collected for further analysis. […] Hemoglobin loss produced by the aspirin was determined by the colorimetric method of Bing and Baker (J. Biol. Chem. 92: 589, 1931). The condition of the gastric mucosa was also assessed by determining the incidence and severity of damage using the scoring system described hereinabove to obtain the "Gastric Bleeding Index".
Following the procedure of Example 26, methocarbamol (Compound 3 ) was tested further in rats via intraperitoneal and intraduodenal administration.

[4] = test system: Carrageenan pleural effusion; assay: Evans Blue-Carrageenan Pleural Effusion Test; type: in vivo, rats; settings: rat, metaxalone 100 mg/kg 30 min before aspirin 150 mg/kg p.o. and again 2 hrs after Carrageenan
From the text: The effect of metaxalone (Compound 15) on the anti-inflammatory activity of aspirin in rats was studied using a modification of the Evans Blue-Carrageenan Pleural Effusion Test [Sancilio, L. F., Journal of Pharmacology and Experimental Therapeutics 168, 199-204 (1969)].

[5] = test system: aspirin-induced gastric bleeding; assay: Aspirin-induced gastric bleeding in Cr51 labeled Heidenhain pouch dogs, oral; type: in vivo; settings: dog; for Mucosal Blood Loss, HCl + Aspirin / Mucosal Blood Loss, HCl: ± S.E.; for Mucosal Blood Loss, HCl: without aspirin; for % Change from Control (mucosal blood loss): P >0.05
Description: Methocarbamol (Compound 3) and Metaxalone (Compound 15) were evaluated for their effectiveness upon oral administration against aspirin-induced gastric bleeding in dogs. Three female chronic Heindehain pouch dogs were used. Red blood cells from each dog were labeled with Cr^51. The dogs were fasted 24 hours prior to any study and three days elapsed between studies. On experimental days each fundic pouch was rinsed with tepid tap water and then filled with 10 ml. of normal saline. After 30 minutes the saline was replaced with 10 ml. of artificial gastric juice (USP, pH 1.3). The dogs were given Compound 3 (200 mg/kg) or Compound 15 (50 and 100 mg/kg) or placebo (starch) orally in gelatin capsules. The 10 ml. of gastric juice was removed from the pouch after 60 minutes and replaced with another 10 ml. of juice containing 100 mg. of aspirin (80 mesh). This was likewise removed after 60 minutes. All samples collected from the pouches were counted for radio-activity using a deep-well counter. From the amount of radio-activity present in the gastric samples, the loss of blood into the pouch was determined. The results are shown in Table 3 and show the effectiveness of orally administering Compounds 3 and 15 in preventing aspirin-induced gastric bleeding.

[6] = ip, 1 h, aspirin 375 mg/kg p.o., read-out: Percent Decrease in Mucosal Bleeding vs Control
[7] = ip, 1 h, 100 mg/kg i.p., aspirin 375 mg/kg p.o., read-out: Percent Decrease in Mucosal Bleeding vs Control
[8] = score 0 to 40, 100 mg/kg i.p. (column head states no dose), aspirin 375 mg/kg p.o.
[9] = 50 mg/kg i.p., Series 2, ± S.E.
[10] = 50 mg/kg oral, Series 3, ± S.E.
[11] = 100 mg/kg i.p., Series 1, ± S.E., P <0.05
[12] = 100 mg/kg i.p., Series 1, P <0.05
[13] = 100 mg/kg intraduodenal, ± S.E., P <0.05
[14] = 100 mg/kg intraduodenal, P <0.05
[15] = 100 mg/kg oral, Series 3, ± S.E.
[16] = 200 mg/kg i.p., Series 2, ± S.E., P <0.05
[17] = 200 mg/kg i.p., Series 2, P <0.05
[18] = 200 mg/kg intraduodenal, ± S.E., P <0.05
[19] = 200 mg/kg intraduodenal, P <0.05
[20] = 200 mg/kg oral, Series 3, ± S.E.

## COc1ccccc1OCC(O)CO (centres unmarked) [Compound 8, 3-(2-methoxyphenoxy)-1,2-propanediol]
[1]; [6]
  change in vivo at 50 mg/kg: -57%
[1]; [7]
  change in vivo at 100 mg/kg: -40%
[1]; [8]
  Gastric Bleeding Index: 26.1
[2]; 30 mg/kg/hr i.v., aspirin 10 mg topical
  bleeding at 30 min: no bleeding
[2]; 10 and 30 mg/kg/hr i.v.
  gastric bleeding produced by aspirin with increasing doses: correspondingly reduced
[3]
  effect on pH (gastric): a similar effect on pH was not observed
  volume of gastric secretion (in words): significant reduction
[3]; 50 mg/kg i.p., Series 2
  Gastric Bleeding Index: 26.0 ± 2.6
  Percent Decrease In Mucosal Hemorrhage vs. Control: 13.3%
[3]; [9]
  Total Hemoglobin Loss: 26.7 ± 3.1 mg
  Volume Gastric Secretion: 6.4 ± 0.4 mL
[3]; 50 mg/kg intraduodenal
  Gastric Bleeding Index: 18.0 ± 4.1
  Percent Decrease In Mucosal Hemorrhage vs. Control: 10.0%
[3]; 50 mg/kg intraduodenal, ± S.E.
  Total Hemoglobin Loss: 12.4 ± 2.3 mg
  Volume Gastric Secretion: 5.0 ± 0.2 mL
[3]; 50 mg/kg oral, Series 3
  Gastric Bleeding Index: 30.5 ± 2.4
  Percent Decrease In Mucosal Hemorrhage vs. Control: 14.2%
[3]; [10]
  Total Hemoglobin Loss: 29.4 ± 3.2 mg
  Volume Gastric Secretion: 8.0 ± 0.3 mL
[3]; [11]
  Total Hemoglobin Loss: 8.2 ± 2.5 mg
  Volume Gastric Secretion: 4.2 ± 0.4 mL
[3]; [12]
  Gastric Bleeding Index: 6.5 ± 4.7
  Percent Decrease In Mucosal Hemorrhage vs. Control: 77%
[3]; [13]
  Total Hemoglobin Loss: 7.7 ± 1.2 mg
  Volume Gastric Secretion: 3.9 ± 0.2 mL
[3]; [14]
  Gastric Bleeding Index: 9.5 ± 2.5
  Percent Decrease In Mucosal Hemorrhage vs. Control: 57.5%
[3]; 100 mg/kg oral, Series 3
  Gastric Bleeding Index: 21.0 ± 2.7
  Percent Decrease In Mucosal Hemorrhage vs. Control: 41.5%
[3]; [15]
  Total Hemoglobin Loss: 26.2 ± 4.6 mg
  Volume Gastric Secretion: 6.5 ± 0.3 mL
[3]; [16]
  Total Hemoglobin Loss: 14.5 ± 3.9 mg
  Volume Gastric Secretion: 4.1 ± 0.4 mL
[3]; [17]
  Gastric Bleeding Index: 6.0 ± 2.1
  Percent Decrease In Mucosal Hemorrhage vs. Control: 80.0%
[3]; [18]
  Total Hemoglobin Loss: 4.4 ± 1.0 mg
  Volume Gastric Secretion: 3.5 ± 0.3 mL
[3]; [19]
  Gastric Bleeding Index: 2.0 ± 1.1
  Percent Decrease In Mucosal Hemorrhage vs. Control: 90.0%
[3]; 200 mg/kg oral, Series 3
  Percent Decrease In Mucosal Hemorrhage vs. Control: 46.5%
[3]; [20]
  Total Hemoglobin Loss: 20.2 ± 1.5 mg
  Volume Gastric Secretion: 6.5 ± 0.5 mL
[3]; 200 mg/kg oral, Series 3, P <0.05
  Gastric Bleeding Index: 19.0 ± 3.9
[3]; 100 and 200 mg/kg
  loss of blood into the gastric contents: markedly reduced
[3]; 100 and 200 mg/kg by any route
  aspirin-induced gastric irritation: markedly reduced

## Cc1cc(C)cc(OCC2CNC(=O)O2)c1 (centres unmarked) [Compound 15, 5-(3,5-dimethylphenoxymethyl)-2-oxazolidinone]
[1]; [6]
  change in vivo at 50 mg/kg: -98%
[1]; [7]
  change in vivo at 100 mg/kg: -96%
[1]; ip
  ED50: 19.6 mg/kg
[1]; ip, 100 mg/kg i.p. (column head states no dose), aspirin 375 mg/kg p.o., read-out: Vol. % Decrease in Gastric Secretion
  change in vivo at 100 mg/kg: -41.4%
[1]; 12.5 mg/kg i.p.
  Gastric Bleeding Index: 27.5 ± 4.2
  Total Hemoglobin Loss: 19.3 ± 3.4 mg
  Vol. Gastric Secretion: 6.3 ± 0.3 mL
[1]; 12.5 mg/kg i.p., P >.05
  Percent Decrease in Mucosal Hemorrhage vs Control: 21%
[1]; 25.0 mg/kg i.p.
  Gastric Bleeding Index: 15.0 ± 5.0
  Total Hemoglobin Loss: 15.3 ± 6.3 mg
  Vol. Gastric Secretion: 5.1 ± 0.3 mL
[1]; 25.0 mg/kg i.p., P <.025
  Percent Decrease in Mucosal Hemorrhage vs Control: 57%
[1]; 50.0 mg/kg i.p.
  Gastric Bleeding Index: 0.8 ± 0.8
  Total Hemoglobin Loss: 2.5 ± 1.1 mg
  Vol. Gastric Secretion: 3.6 ± 0.5 mL
[1]; 50.0 mg/kg i.p., P <.001
  Percent Decrease in Mucosal Hemorrhage vs Control: 98%
[1]; 100.0 mg/kg i.p.
  Gastric Bleeding Index: 3.3 ± 1.7
  Total Hemoglobin Loss: 2.5 ± 1.4 mg
  Vol. Gastric Secretion: 3.8 ± 0.4 mL
[1]; 100.0 mg/kg i.p., P <.001
  Percent Decrease in Mucosal Hemorrhage vs Control: 91%
[1]; i.p.
  preventing aspirin-induced gastric bleeding (in words): very effective
[1]; [8]
  Gastric Bleeding Index: 0.8
[4]
  effect on the anti-inflammatory effectiveness of aspirin: no effect
[5]; 50 mg/kg p.o.
  % Protection: 77%
  Mucosal Blood Loss, HCl + Aspirin: 8.6 ± 3.7 µL
  Mucosal Blood Loss, HCl: 4.4 ± 2.4 µL
  % Change from Control (mucosal blood loss): +95%
[5]; 100 mg/kg p.o.
  % Protection: 100%
  Mucosal Blood Loss, HCl + Aspirin: 12.7 ± 3.5 µL
  Mucosal Blood Loss, HCl: 13.0 ± 1.5 µL
  % Change from Control (mucosal blood loss): -2%
[5]; oral
  preventing aspirin-induced gastric bleeding (in words): effectiveness

— patent publication US4036957A, “Phenoxy compounds in combinations to suppress gastric bleeding in aspirin therapy” (priority 1975, dated 1977)
